{
  "source": "paper PMC9181938",
  "about": "“Fluorinated Analogues of Lepidilines A and C: Synthesis and Screening of Their Anticancer and Antiviral Activity” (Molecules, 2022)",
  "key": {"NCTC clone 929 cells": {"test_system": "NCTC clone 929 cells", "test": "Cytotoxicity MTT assay (0.1–1000 µM), CC50", "type": "cell-based, Mus musculus", "settings": "NCTC clone 929, MTT, 48 h; read-out: CC50 Normal Cell Lines NCTC Clone 929"}, "LLC-MK2 cells": {"test_system": "LLC-MK2 cells", "test": "Cytotoxicity MTT assay (0.1–1000 µM), CC50", "type": "cell-based, Macaca mulatta", "settings": "LLC-MK2, MTT, 48 h; read-out: CC50 Normal Cell Lines LLC-MK2"}, "A549 cells": {"test_system": "A549 cells", "test": "Cytotoxicity MTT assay (0.1–1000 µM), CC50", "type": "cell-based, Human", "settings": "48 h, read-out: CC50 Cancer Cell Lines A549"}, "MRC-5 cells": {"test_system": "MRC-5 cells", "test": "Cytotoxicity MTT assay (0.1–1000 µM), CC50", "type": "cell-based, Human", "settings": "MRC-5, MTT, 48 h; read-out: CC50 Normal Cell Lines MRC-5"}, "HepG2 cells": {"test_system": "HepG2 cells", "test": "Cytotoxicity MTT assay (0.1–1000 µM), CC50", "type": "cell-based, Human", "settings": "48 h, read-out: CC50 Cancer Cell Lines HepG2"}, "Vero cells": {"test_system": "Vero cells", "test": "Cytotoxicity MTT assay (0.1–1000 µM), CC50", "type": "cell-based, Cercopithecus aethiops", "settings": "48 h, read-out: CC50 Normal Cell Lines Vero"}, "HeLa cells": {"test_system": "HeLa cells", "test": "Cytotoxicity MTT assay (0.1–1000 µM), CC50", "type": "cell-based, Human", "settings": "MTT, 48 h, read-out: CC50 Cancer Cell Lines HeLa"}, "[1]": {"test": "Cytotoxicity MTT assay (0.1–1000 µM), CC50", "type": "cell-based, Mus musculus", "settings": "Mus musculus, NCTC clone 929 cells, NCTC clone 929, MTT, 48 h; read-out: CC50 Normal Cell Lines NCTC Clone 929"}, "[2]": {"test_system": "Human adenovirus 5 (AdV5)", "test": "Antiviral activity assay (0.1–1000 µM), IC50", "type": "cell-based", "settings": "Human mastadenovirus C; AdV5, MOI 0.005; read-out: IC50 AdV5", "how_it_was_run": "(§1)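 Confluent cell monolayers were infected (AdV5 and EMCV MOI 0.005, HPIV-3 MOI 0.01, 1-h adsorption; HCMV 20 PFU/well, 2-h adsorption), then incubated at 37 °C with compounds (0.1–1000 µM) in 2% FBS MEM until CPE appeared. Infection was read by MTT or, for HCMV, plaque counting. IC50 was the concentration halving plaques versus untreated infected controls.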"}, "[3]": {"test_system": "Encephalomyocarditis virus (EMCV)", "test": "Antiviral activity assay (0.1–1000 µM), IC50", "type": "cell-based", "settings": "Cardiovirus A, MOI 0.005, read-out: IC50 EMCV", "how_it_was_run": "as §1"}, "[4]": {"test_system": "Human herpesvirus 1 (HSV-1)", "test": "Antiviral activity assay (0.1–1000 µM), IC50", "type": "cell-based", "settings": "Human alphaherpesvirus 1; HSV-1, MOI 0.005"}, "[5]": {"test_system": "Human parainfluenza virus type 3 (HPIV-3)", "test": "Antiviral activity assay (0.1–1000 µM), IC50", "type": "cell-based", "settings": "Human respirovirus 3, HPIV-3, MOI 0.01; read-out: IC50 HPIV-3", "how_it_was_run": "as §1"}, "[6]": {"test": "Cytotoxicity MTT assay (0.1–1000 µM), CC50", "type": "cell-based, Human", "settings": "human, A549 cells, read-out: CC50 Cancer Cell Lines A549"}, "[7]": {"test": "Cytotoxicity MTT assay (0.1–1000 µM), CC50", "type": "cell-based, Human", "settings": "human, HepG2 cells, read-out: CC50 Cancer Cell Lines HepG2"}, "[8]": {"test_system": "Human herpesvirus 5 (HCMV)", "test": "Antiviral activity assay (0.1–1000 µM), IC50, plaque reduction", "type": "cell-based", "settings": "Human betaherpesvirus 5, 20 PFU/well", "how_it_was_run": "as §1"}},
  "note": "Like-named read-outs stand apart in the source and are kept apart here.",
  "data": [
    {"compound": "Cc1c(C)[n+](Cc2cccc(F)c2)cn1Cc1ccccc1", "note": "[1e[PF6]] [1-Benzyl-3-(3-fluorobenzyl)-4,5-dimethylimidazolium hexafluorophosphate]", "values": [
      {"measurement": "CC50", "setting": "NCTC clone 929 cells", "result": "148 ± 11.5", "unit": "µM"},
      {"measurement": "CC50", "setting": "LLC-MK2 cells", "result": "150 ± 2.52", "unit": "µM"},
      {"measurement": "CC50", "setting": "A549 cells", "result": "38 ± 3.46", "unit": "µM"},
      {"measurement": "CC50", "setting": "MRC-5 cells", "result": "150 ± 4.17", "unit": "µM"},
      {"measurement": "CC50", "setting": "HepG2 cells", "result": "317 ± 5.77", "unit": "µM"},
      {"measurement": "CC50", "setting": "Vero cells", "result": "56.3 ± 3.21", "unit": "µM"},
      {"measurement": "CC50", "setting": "HeLa cells", "result": "0.08 ± 0.001", "unit": "µM"}
    ]},
    {"compound": "Cc1c(C)[n+](Cc2cccc(F)c2)cn1Cc1ccccc1.[Cl-]", "note": "[Compound 1e, 1-Benzyl-3-(3-fluorobenzyl)-4,5-dimethylimidazolium chloride]", "values": [
      {"measurement": "CC50 at 48 h", "setting": "[1]", "result": "79.2 ± 1.44", "unit": "µM"},
      {"measurement": "IC50", "setting": "[2]", "result": "> 0.039", "unit": "µM"},
      {"measurement": "IC50", "setting": "[3]", "result": "> 79.2", "unit": "µM"},
      {"measurement": "IC50", "setting": "[4]", "result": "> 22.7", "unit": "µM"},
      {"measurement": "IC50", "setting": "[5]", "result": "> 53.5", "unit": "µM"},
      {"measurement": "CC50", "setting": "LLC-MK2 cells", "result": "53.5 ± 2.18", "unit": "µM"},
      {"measurement": "CC50 at 48 h", "setting": "[6]", "result": "37.7 ± 3.79", "unit": "µM"},
      {"measurement": "melting point", "result": "190 to 192", "unit": "°C"},
      {"measurement": "CC50", "setting": "MRC-5 cells", "result": "52.7 ± 0.577", "unit": "µM"},
      {"measurement": "CC50 at 48 h", "setting": "[7]", "result": "423 ± 7.64", "unit": "µM"},
      {"measurement": "IC50", "setting": "[8]", "result": "> 52.7", "unit": "µM"},
      {"measurement": "CC50", "setting": "Vero cells", "result": "22.7 ± 1.53", "unit": "µM"},
      {"measurement": "CC50", "setting": "HeLa cells", "result": "0.039 ± 0.001", "unit": "µM"}
    ]}
  ]
}
